Legend:
TYK2 = TYK2 (Homo sapiens (Human), UniProt P29597); assay: Tyk2 activity inhibition assay (radioactive kinase assay / Caliper assay); format: biochemical
Protocol: Peptide substrate, [[…]], (20 μM) is prepared in reaction buffer (20 mM Hepes pH 7.5, 10 mM MgCl2, 1 mM EGTA, 0.02% Brij35, 0.02 mg/mL BSA, […], 2 mM DTT, 1% DMSO. TYK2 (Invitrogen) kinase is added, followed by compounds in DMSO. 33PATP is added to initiate the reaction in ATP at 10 μM. Kinase reaction is incubated for 120 min at room temp and reactions are spotted onto P81 ion exchange paper (Whatman #3698-915), and then washed extensively in 0.75% phosphoric acid, prior to reading the radioactivity counts. For JAK2 (Invitrogen) kinase assay the peptide substrate poly[Glu:Tyr](4:1), 0.2 mg/ml is used, in the reaction carried out the same as for TYK2.
(§1) The caliper machine employs an off chip mobility shift assay to detect phosphorylated peptide substrates from kinase assays, using microfluidics technology. The assays are carried out at ATP concentration equivalent to the ATP Km, and at 1 mM ATP. Compounds are serially diluted in DMSO then further diluted in assay buffer (25 mM HEPES, pH 7.5, 0.01% Brij-35, 0.01% Triton, 0.5 mM EGTA). 5 ul of diluted compound was added into wells first, then 10 ul of enzyme mix was added into wells, followed by 10 uL of substrate mix (peptide and ATP in 10 mM MgCl2) to start reaction. Reaction was incubated at 28° C. for 25 min and then added 25 ul stop buffer (100 mM HEPES, 0.015% Brij-35, 50 mM EDTA), followed by reading with Caliper. JAK2 at 1 nM final concentration and TYK2 at 9.75 nM are from Carna, and substrates used are ATP at 20 and 16 uM, respectively. JAK2 assay uses peptide 22 and TYK2 uses peptide 30 (Caliper), each at 3 uM.

JAK2 = JAK2 (Homo sapiens (Human), UniProt O60674); assay: JAK2 activity inhibition assay (radioactive kinase assay / Caliper assay); format: biochemical; settings: read-out: JAK2 Ki
Protocol: as §1, with “The assays are carried out at ATP concentration equivalent to the ATP Km, and at 1 mM ATP.” left out, “Caliper.” for “Caliper. JAK2 at 1 nM final concentration and TYK2 at 9.75 nM are from Carna, and substrates used are ATP at 20 and 16 uM, respectively. JAK2 assay uses peptide 22 and TYK2 uses peptide 30 (Caliper), each at 3 uM.”

TYK2, sequence (P29597 whole entry): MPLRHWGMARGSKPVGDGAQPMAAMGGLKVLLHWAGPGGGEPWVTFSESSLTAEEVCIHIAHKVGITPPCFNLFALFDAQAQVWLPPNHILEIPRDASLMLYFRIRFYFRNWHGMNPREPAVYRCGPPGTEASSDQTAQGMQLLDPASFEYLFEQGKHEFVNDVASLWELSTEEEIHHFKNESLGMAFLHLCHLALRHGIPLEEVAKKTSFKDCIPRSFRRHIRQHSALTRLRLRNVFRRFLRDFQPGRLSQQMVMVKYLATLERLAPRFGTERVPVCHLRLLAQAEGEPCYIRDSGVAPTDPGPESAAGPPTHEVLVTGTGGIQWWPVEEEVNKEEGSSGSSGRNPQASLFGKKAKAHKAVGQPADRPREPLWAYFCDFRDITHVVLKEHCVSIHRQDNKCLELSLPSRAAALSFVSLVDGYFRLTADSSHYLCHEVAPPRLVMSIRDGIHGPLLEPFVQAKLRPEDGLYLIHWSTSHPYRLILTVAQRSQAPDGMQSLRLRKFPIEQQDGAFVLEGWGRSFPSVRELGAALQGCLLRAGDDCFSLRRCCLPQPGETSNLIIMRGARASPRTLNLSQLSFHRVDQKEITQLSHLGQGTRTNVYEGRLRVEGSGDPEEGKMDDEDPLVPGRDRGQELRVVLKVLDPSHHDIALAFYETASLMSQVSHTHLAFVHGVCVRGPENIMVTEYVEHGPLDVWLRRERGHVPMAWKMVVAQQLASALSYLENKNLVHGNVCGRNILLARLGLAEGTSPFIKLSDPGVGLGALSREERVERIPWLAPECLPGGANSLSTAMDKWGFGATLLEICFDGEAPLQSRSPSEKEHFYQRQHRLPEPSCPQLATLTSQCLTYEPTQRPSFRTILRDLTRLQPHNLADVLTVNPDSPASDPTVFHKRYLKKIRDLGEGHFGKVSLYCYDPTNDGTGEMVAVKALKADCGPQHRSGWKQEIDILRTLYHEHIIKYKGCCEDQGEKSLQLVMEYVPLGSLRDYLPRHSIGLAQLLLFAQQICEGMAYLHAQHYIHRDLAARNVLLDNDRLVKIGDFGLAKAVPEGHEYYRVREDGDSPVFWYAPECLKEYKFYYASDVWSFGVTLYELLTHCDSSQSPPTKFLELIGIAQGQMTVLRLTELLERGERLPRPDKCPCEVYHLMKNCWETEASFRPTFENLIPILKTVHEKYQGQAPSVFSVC
JAK2, sequence (O60674 whole entry): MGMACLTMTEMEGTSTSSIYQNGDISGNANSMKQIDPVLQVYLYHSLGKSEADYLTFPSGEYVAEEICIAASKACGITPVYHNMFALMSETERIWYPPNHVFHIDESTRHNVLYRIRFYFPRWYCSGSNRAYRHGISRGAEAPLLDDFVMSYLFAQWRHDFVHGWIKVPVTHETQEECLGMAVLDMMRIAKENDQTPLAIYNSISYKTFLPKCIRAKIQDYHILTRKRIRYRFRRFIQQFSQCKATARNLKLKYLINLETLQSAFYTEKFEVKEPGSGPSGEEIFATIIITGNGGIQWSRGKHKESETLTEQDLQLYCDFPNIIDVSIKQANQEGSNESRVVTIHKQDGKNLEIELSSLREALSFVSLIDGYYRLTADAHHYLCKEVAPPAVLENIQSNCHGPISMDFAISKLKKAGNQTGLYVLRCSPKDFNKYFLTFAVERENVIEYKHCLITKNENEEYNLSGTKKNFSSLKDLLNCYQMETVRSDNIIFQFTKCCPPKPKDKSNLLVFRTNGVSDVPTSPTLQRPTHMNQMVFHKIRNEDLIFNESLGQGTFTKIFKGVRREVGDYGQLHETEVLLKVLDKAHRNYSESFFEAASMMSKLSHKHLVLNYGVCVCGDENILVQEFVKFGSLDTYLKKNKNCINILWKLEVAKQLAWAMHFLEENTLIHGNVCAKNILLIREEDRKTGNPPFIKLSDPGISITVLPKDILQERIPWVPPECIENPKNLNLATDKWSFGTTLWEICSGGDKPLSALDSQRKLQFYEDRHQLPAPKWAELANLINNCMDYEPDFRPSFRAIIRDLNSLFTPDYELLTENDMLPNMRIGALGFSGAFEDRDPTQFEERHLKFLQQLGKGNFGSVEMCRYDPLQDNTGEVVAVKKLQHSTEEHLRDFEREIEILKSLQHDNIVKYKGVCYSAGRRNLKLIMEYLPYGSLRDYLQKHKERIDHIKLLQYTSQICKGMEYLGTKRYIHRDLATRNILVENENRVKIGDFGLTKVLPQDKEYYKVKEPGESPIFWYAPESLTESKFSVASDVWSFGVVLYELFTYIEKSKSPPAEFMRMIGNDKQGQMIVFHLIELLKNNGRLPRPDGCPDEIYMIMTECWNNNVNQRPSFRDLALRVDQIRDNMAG

Row | Compound | Ki (TYK2) [nM] | Ki (JAK2) [nM]
1 | N[C@H]1CCCN(c2ccc(Nc3cc(-c4c(F)cccc4F)nc4c3C(=O)NC4)nc2)C1 [Compound I-143, (S)-4-((5-(3-aminopiperidin-1-yl)pyridin-2-yl)amino)-2-(2,6-difluorophenyl)-6,7-dihydro-5H-pyrrolo[3,4-b]pyridin-5-one] | < 10 | 10 to 100
2 | O=C1NCc2nc(-c3c(F)cccc3F)nc(Nc3ccc(C(=O)N4CC(O)C4)cc3)c21 [Compound I-168, 2-(2,6-difluorophenyl)-4-((4-(3-hydroxyazetidine-1-carbo-nyl)phenyl)amino)-6,7-dihydro-5H-pyrrolo[3,4-d]pyrimidin-5-one] | < 10 | 100 to 1000
3 | C[C@@H](CO)NC(=O)Cc1ccc(Nc2nc(-c3c(F)cccc3F)nc3c2C(=O)NC3)cc1 [Compound I-74, (S)-2-(4-((2-(2,6-difluorophenyl)-5-oxo-6,7-dihydro-5H-pyrrolo[3,4-d]pyrimidin-4-yl)amino)phenyl)-N-(1hydroxypropan-2-yl)acetamide] | < 10 | 100 to 1000
4 | O=C1NCc2nc(-c3c(F)cccc3F)nc(Nc3ccc(C4CCN(CCN5CCOCC5)C4=O)cc3)c21 (stereo not drawn) [Compound I-121, 2-(2,6-difluorophenyl)-4-((4-(1-(2-morpholinoethyl)-2-oxopyrrolidin-3-yl)phenyl)amino)-6,7-dihydro-5H-pyrrolo[3,4-d]pyrimidin-5-one] | < 10 | 100 to 1000
5 | C[C@H](O)CNC(=O)Cc1ccc(Nc2nc(-c3c(F)cccc3F)nc3c2C(=O)NC3)cc1 [Compound I-75, (S)-2-(4-((2-(2,6-difluorophenyl)-5-oxo-6,7-dihydro-5H-pyrrolo[3,4-d]pyrimidin-4-yl)amino)phenyl)-N-(2-hydroxy-propyl)acetamide] | < 10 | 100 to 1000
6 | O=C(Cc1ccc(Nc2nc(-c3c(F)cccc3Cl)nc3c2C(=O)NC3)cc1)N[C@@H]1CCNC1 [Compound I-81, (R)-2-(4-((2-(2-chloro-6-fluorophenyl)-5-oxo-6,7-dihydro-5H-pyrrolo[3,4-d]pyrimidin-4-yl)amino)phenyl)-N-(pyrrolidin-3-yl)acetamide] | < 10 | 100 to 1000
7 | COC(=O)Cc1ccc(Nc2cc(-c3c(F)cccc3F)nc3c2C(=O)NC3)nc1 [Compound I-132, methyl 2-(6-((2-(2,6-difluorophenyl)-5-oxo-6,7-dihydro-5H-pyrrolo[3,4-b]pyridin-4-yl)amino)pyridin-3-yl)acetate] | < 10 | 10 to 100
8 | CC(C)(O)CNC(=O)Cc1ccc(Nc2nc(-c3c(F)cccc3F)nc3c2C(=O)NC3)cc1 [Compound I-76, 2-(4-((2-(2,6-difluorophenyl)-5-oxo-6,7-dihydro-5H-pyrrolo[3,4-d]pyrimidin-4-yl)amino)phenyl)-N-(2-hydroxy-2-methylpropyl)acetamide] | < 10 | 10 to 100
9 | CCNC(=O)C(C)(C)c1ccc(Nc2nc(-c3c(F)cccc3F)nc3c2C(=O)NC3)cc1 [Compound I-120, 2-(4-((2-(2,6-difluorophenyl)-5-oxo-6,7-dihydro-5H-pyrrolo[3,4-d]pyrimidin-4-yl)amino)phenyl)-N-ethyl-2-methylpropanamide] | < 10 | 100 to 1000
10 | O=C(NCCN1CCOCC1)c1ccc(Nc2nc(-c3c(F)cccc3F)nc3c2C(=O)NC3)cc1 [Compound I-127, 4-((2-(2,6-difluorophenyl)-5-oxo-6,7-dihydro-5H-pyrrolo[3,4-d]pyrimidin-4-yl)amino)-N-(2-morpholinoethyl)benzamide] | < 10 | 10 to 100
11 | O=C(Cc1ccc(Nc2nc(-c3c(F)cccc3F)nc3c2C(=O)NC3)cc1)NC1CC2(CNC2)C1 [Compound I-14, 2-(4-((2-(2,6-difluorophenyl)-5-oxo-6,7-dihydro-5H-pyrrolo[3,4-d]pyrimidin-4-yl)amino)phenyl)-N-(2-azaspiro[3.3]heptan-6-yl)acetamide] | < 10 | 100 to 1000
12 | O=C(NCCO)c1ccc(Nc2cc(-c3c(F)cccc3F)nc3c2C(=O)NC3)nc1 [Compound I-164, 6-((2-(2,6-difluorophenyl)-5-oxo-6,7-dihydro-5H-pyrrolo[3,4-b]pyridin-4-yl)amino)-N-(2-hydroxyethyl)nicotinamide] | < 10 | 10 to 100
13 | COc1ccc(Nc2nc(N3[C@H](C)CCC[C@@H]3C)nc3c2C(=O)NC3)cc1 [Compound I-183, 2-((2R,6S)-2,6-dimethylpiperidin-1-yl)-4-((4-methoxyphenyl)amino)-6,7-dihydro-5H-pyrrolo[3,4-d]pyrimidin-5-one] | < 10 | 10 to 100
14 | O=C(NC1CCOCC1)c1ccc(Nc2cc(-c3c(F)cccc3F)nc3c2C(=O)NC3)nc1 [Compound I-139, 6-((2-(2,6-difluorophenyl)-5-oxo-6,7-dihydro-5H-pyrrolo[3,4-b]pyridin-4-yl)amino)-N-(tetrahydro-2H-pyran-4-yl)nicotinamide] | < 10 | 10 to 100
15 | C[C@@]1(c2ccc(Nc3nc(-c4c(F)cccc4F)nc4c3C(=O)NC4)cc2)NC(=O)NC1=O [Compound I-173, (S)-5-(4-((2-(2,6-difluorophenyl)-5-oxo-6,7-dihydro-5H-pyrrolo[3,4-d]pyrimidin-4-yl)amino)phenyl)-5-methylimidazolidine-2,4-dione] | < 10 | 10 to 100
16 | CN(CC(C)(C)O)C(=O)Cc1ccc(Nc2nc(-c3c(F)cccc3F)nc3c2C(=O)NC3)cc1 [Compound I-193, 2-(4-((2-(2,6-difluorophenyl)-5-oxo-6,7-dihydro-5H-pyrrolo[3,4-d]pyrimidin-4-yl)amino)phenyl)-N-(2-hydroxy-2-methylpropyl)-N-methylacetamide] | < 10 | 100 to 1000
17 | O=C1NCc2nc(-c3c(F)cccc3F)nc(Nc3ccc(CC(=O)N4CCOC[C@H]4C(=O)O)cc3)c21 [Compound I-112, (S)-4-(2-(4-((2-(2,6-difluorophenyl)-5-oxo-6,7-dihydro-5H-pyrrolo[3,4-d]pyrimidin-4-yl)amino)phenyl)acetyl)morpholine-3-carboxylic Acid] | < 10 | 100 to 1000
18 | COc1ccc(Nc2cc(-c3c(F)cccc3F)nc3c2C(=O)N[C@H]3C)nc1 [Compound I-241, (S)-2-(2,6-difluorophenyl)-4-((5-methoxypyridin-2-yl)amino)-7-methyl-6,7-dihydro-5H-pyrrolo[3,4-b]pyridin-5-one] | 100 to 1000 | 
19 | Cc1ccc(Nc2nc(-c3c(F)cccc3F)nc3c2C(=O)NC3)cc1F [Compound I-292, 2-(2,6-difluorophenyl)-4-((3-fluoro-4-methylphenyl)amino)-6,7-dihydro-5H-pyrrolo[3,4-d]pyrimidin-5-one] | 10 to 100 | 
20 | O=C1NCc2nc(-c3c(F)cccc3F)nc(Nc3ccc(C4CCCCC4)cc3)c21 [Compound I-197, 4-((4-cyclohexylphenyl)amino)-2-(2,6-difluorophenyl)-6,7-dihydro-5H-pyrrolo[3,4-d]pyrimidin-5-one] | 100 to 1000 | 
21 | O=C1NCc2nc(-c3c(F)cccc3F)nc(Nc3ccc(OC(F)(F)F)cc3)c21 [Compound I-184, 2-(2,6-difluorophenyl)-4-((4-(trifluoro-methoxy)phenyl)amino)-6,7-dihydro-5H-pyrrolo[3,4-d]pyrimidin-5-one] | 10 to 100 | 
22 | COC(=O)Cc1ncc(Nc2nc(-c3c(F)cccc3F)nc3c2C(=O)NC3)cn1 [Compound I-166, methyl 2-(5-((2-(2,6-difluorophenyl)-5-oxo-6,7-dihydro-5H-pyrrolo[3,4-d]pyrimidin-4-yl)amino)pyrimidin-2-yl)acetate] | 100 to 1000 | 

Reference: patent US10196390B2, “TYK2 inhibitors and uses thereof” (Nimbus Lakshmi, Inc., priority 2014, dated 2019)
